Measured values as given in patent US20260000635A1, “THERAPEUTIC AGENT FOR GLAUCOMA COMPRISING FP AGONIST AND ß BLOCKER” (ONO PHARMACEUTICAL CO., LTD., priority 2017, published 2026).

Test system: male dogs (TOYO Beagle)
Experiment: Intraocular pressure lowering action after instillation in dogs
Format: in vivo, dog (TOYO Beagle)
Settings: for Time after administration exhibiting maximum intraocular pressure lowering action: 30 μL instillation, measured at 2, 4, 6, 8, 24 h; for Intraocular pressure lowering width 24 hours after administration / Maximum intraocular pressure lowering width: mean ± S.E., n=8, 30 μL instillation, Compound A 3 μg/mL, timolol 0.5% ophthalmic solution; for Maximum intraocular pressure lowering width: maximum of average lowering width over 2, 4, 6, 8, 24 h
Procedure: Compound A and a β-blocker were used as test substances. Compound A was prepared in a 3 μg/mL solution using a vehicle (an aqueous solution containing 0.3 w/v % sodium citrate, 0.5 w/v % polysorbate 80, and 0.8 w/v % sodium chloride). Timolol (trade name: Timoptol (registered trademark) 0.5% ophthalmic solution, Santen Pharmaceutical Co., Ltd.) was used as a β-blocker.
Approximately one hour before administering the vehicle and a test substance to male dogs (TOYO Beagle, 16 to 42 months old at start of use) that have been sufficiently acclimated in advance, intraocular pressure in both eyes was measured, and the intraocular pressure was set as the intraocular pressure value before instillation. Thereafter, a test substance or the vehicle was administered by instillation into the treated eyes in an amount of 30 μL each, and intraocular pressure in both eyes was measured about 2, 4, 6, 8, and 24 hours after the administration. The intraocular pressure was measured by a pneumatic applanation tonometer (Model 30 Classic, Reichert, Inc.) under the local anesthesia after instilling 0.4% oxybuprocaine hydrochloride (Benoxil (registered trademark) ophthalmic solution 0.4%, Santen Pharmaceutical Co., Ltd.), which is a local anesthetic. The measurement was performed until a stable value was obtained three times successively (a difference between continuously obtained measured values was within 0.5 mmHg).
The value obtained by subtracting the intraocular pressure value at each measurement time from the intraocular pressure value before test substance and vehicle administration was defined as the intraocular pressure lowering width, and the average value of the intraocular pressure lowering width of each individual at each measurement time was defined as the average intraocular pressure lowering width. The maximum value of the average intraocular pressure lowering width at each measurement time was defined as the maximum intraocular pressure lowering width. In addition, the average intraocular pressure lowering width 24 hours after administration was defined as the intraocular pressure lowering width 24 hours after administration. Meanwhile, in the case where there are two drug names in a group name, it means the order of administration. For example, the Compound A-timolol group means that Compound A was administered first, and timolol was administered thereafter into the same eye.

SMILES	Time after administration exhibiting maximum intraocular pressure lowering action [h]	Intraocular pressure lowering width 24 hours after administration [mmHg]	Maximum intraocular pressure lowering width [mmHg]
CC(C)OC(=O)CCC[C@H]1CC[C@@H]2[C@@H](/C=C/[C@@H](O)COc3cc(F)ccc3F)[C@H](O)C[C@@H]2OC1 [Compound A-vehicle, 2-propanyl 4-{(3S,5aR,6R,7R,8aS)-6-[(1E,3R)-4-(2,5-difluorophenoxy)-3-hydroxy-1-buten-1-yl]-7-hydroxyoctahydro-2H-cyclopenta[b]oxepin-3-yl}butanoate]	6	3.5 ± 0.75	5.8 ± 0.35
CC(C)(C)NC[C@H](O)COc1nsnc1N1CCOCC1 [Vehicle-timolol, timolol]	2	0.0 ± 0.56	2.7 ± 0.56
